# What was measured:
# acute brain slices = assay: Late recurrent discharges in acute brain slices exposed to 0-Mg
# [1] = test system: 18-20 Div hippocampal neurons; assay: Gramicidin perforated patch clamp, EGABA in hippocampal neurons; type: cell-based, Sprague Dawley
# Description: Neuronal Cultures. Hippocampal neurons were prepared from Sprague Dawley E18 embryos and plated at 450,000 per dish and maintained at 37° C. in a humidified 5% CO2 incubator for 10-25 days before experimentation (Lee et al., Nat. Neurosci. 14, 736-743 (2011)).
# At this developmental stage, GABAAR receptor activation leads to hyperpolarization, a phenomenon critically dependent upon KCC2 (Kontou et al., J Biol Chem, 100364 (2021)).
# Neuronal Patch clamp assays. Neuronal cell culture recordings were performed in bath saline at 34° C. For gramicidin perforated-patch experiments, pipettes contained (in mM): 140 KCl and 10 HEPES, pH 7.4 KOH. […] Bath saline contained the following (in mM): 140 NaCl, 2.5 KCl, 2.5 CaCl2, 2.5 MgCl2, 10 HEPES, and 11 glucose, pH 7.4 NaOH (Kontou et al., 2021, supra). All compound solutions were applied to cells using a three-barreled 700 μm pipe positioned just above the cell (Warner Instruments). […] 10 mV voltage-ramp protocols over 1-s periods were used to determine the reversal potentials of the leak-subtracted muscimol-activated GABAAR currents. All voltages from whole-cell experiments were corrected offline using a calculated liquid junction potential value (13.6 mV) in Clampex (Molecular Devices). For gramicidin perforated-patch experiments, intracellular Cl^− values were back-calculated using measured EGABA values and the Nernst equation: […]
# Measurements were performed in the presence of bumetanide […] and tetrodotoxin (TTX; 300 nM) to limit the contributions of NKCC1 and activity dependent shifts in chloride levels, respectively (Lee et al., 2011, supra).
# KCC2-S940A = target: T1, KCC2-S940A (Homo sapiens, UniProt Q9H2X9, S963A); assay: Tl+ flux assay, HEK-293 cells expressing KCC2-S940A; type: cell-based
# T1 construct: expressed in transfected cells; host or cells: HEK-293
# T1 sequence (Q9H2X9 1-1116 isoform Q9H2X9-2 S940A): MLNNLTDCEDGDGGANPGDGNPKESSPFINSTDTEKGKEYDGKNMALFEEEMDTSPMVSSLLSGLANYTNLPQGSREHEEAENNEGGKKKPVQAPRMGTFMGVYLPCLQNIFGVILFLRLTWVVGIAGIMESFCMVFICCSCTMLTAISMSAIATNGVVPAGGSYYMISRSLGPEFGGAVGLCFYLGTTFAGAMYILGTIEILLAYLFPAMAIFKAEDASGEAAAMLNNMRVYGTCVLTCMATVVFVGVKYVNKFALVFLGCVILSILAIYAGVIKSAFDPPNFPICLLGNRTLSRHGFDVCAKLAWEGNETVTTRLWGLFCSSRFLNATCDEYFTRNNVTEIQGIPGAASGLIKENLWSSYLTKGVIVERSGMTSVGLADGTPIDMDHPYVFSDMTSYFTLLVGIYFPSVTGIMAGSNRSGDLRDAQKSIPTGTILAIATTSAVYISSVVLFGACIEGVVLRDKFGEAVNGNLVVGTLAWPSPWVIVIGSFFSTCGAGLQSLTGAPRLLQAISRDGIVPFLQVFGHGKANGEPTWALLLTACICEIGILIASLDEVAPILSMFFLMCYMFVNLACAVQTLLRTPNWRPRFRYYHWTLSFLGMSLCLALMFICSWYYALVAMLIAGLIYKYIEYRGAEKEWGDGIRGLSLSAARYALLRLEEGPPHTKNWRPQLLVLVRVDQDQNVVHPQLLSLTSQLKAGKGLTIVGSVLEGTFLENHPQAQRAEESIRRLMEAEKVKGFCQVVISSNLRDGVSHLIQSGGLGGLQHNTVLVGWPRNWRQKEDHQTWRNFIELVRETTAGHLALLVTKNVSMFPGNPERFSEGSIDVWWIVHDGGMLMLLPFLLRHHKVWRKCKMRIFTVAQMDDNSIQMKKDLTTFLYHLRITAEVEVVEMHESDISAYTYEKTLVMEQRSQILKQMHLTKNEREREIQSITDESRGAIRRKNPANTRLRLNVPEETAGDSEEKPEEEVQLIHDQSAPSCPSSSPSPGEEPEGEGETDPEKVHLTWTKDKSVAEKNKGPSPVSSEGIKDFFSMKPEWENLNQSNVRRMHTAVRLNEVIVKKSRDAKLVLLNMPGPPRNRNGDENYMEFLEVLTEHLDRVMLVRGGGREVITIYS
# Description: FLIPR TI Flux assay. HEK-293 cells were washed with HBSS, and then incubated with loading buffer containing TI sensitive fluorescent dye (https://www.moleculardevices.com), 20 μM bumetanide 20 μM ouabain and 2.5 mM probenecid for 1 h at room temperature (RT) under control conditions or with drugs in the dark using a FlexStation 3 microplate reader (Molecular Devices) and imaged […] for 30 min. Stimulus buffer was added containing 5 mM K^+/0.5 mM Tl^+ and cells were imaged every 1.5 over a 190 second time course The initial rate Tl^+ uptake (Relative Fluorescence Units (RFU) per second) was determined following addition of the stimulus buffer as outlined previously (Conway et al., 2017, supra) (Lee et al., 2022, supra).
# Compared to KCC2, effects on KCC3, KCC4, and NKCC1 were only seen at concentrations more than 35-fold that of KCC2 (>100 μM) (FIG. 1G).
# [2] = PK study, brain and plasma levels by LC-MS/MS; type: in vivo; details: mice
compound,measurement,setting,value
"C[C@@H]1CN(c2nc3c(c(Nc4ccc(C5CCCCC5)cc4)n2)COC3)CCO1 [Compound A, (R)—N-(4-cyclohexylphenyl)-2-(2-methylmorpholino)-5,7-dihydrofuro[3,4-d]pyrimidin-4-amine]",development of late recurrent discharges (LRDs),acute brain slices,reduced
same,EGABA at 0 min,"[1]; 300 nM group, before treatment, bumetanide and TTX present",−75±3.1 mV
same,EGABA at 15 min,"[1]; 300 nM, 15 min, bumetanide and TTX present",−85.1±4.2 mV
same,reduction in Cl−,"[1]; 300 nM, 15 min, from EGABA by Nernst equation",2.2 ± 0.6 mM
same,activity of KCC2-S940A construct,KCC2-S940A,increased the activity
same,time at which accumulation in the brain was detected,[2]; 50 mg/kg SC,30 min
same,time by which accumulation in the brain was evident,[2]; single 25 mg/kg IV bolus,≤ 30 min

# Source: patent US20260048062A1, “FUSED AMINO PYRIMIDINE COMPOUNDS FOR TREATMENT OF PSYCHOSIS AND PSYCHOTIC DISORDERS” (Ovid Therapeutics Inc., priority 2024, published 2026)
